Values of other authors in patent US8076148B2, “Cytochrome c protein and assay” (GE Healthcare UK Limited, priority 2003, dated 2011).

Columns and labels:
[1] = test system: rat pheochromocytoma-6 (PC6) cells; settings: PC6 cells expressing rat cytochrome c-GFP
[2] = test system: caspase-9; settings: in vitro
[3] = target: T1, Apaf-1 (Homo sapiens, UniProt O14727); settings: in vitro
T1 sequence (O14727 1-1248): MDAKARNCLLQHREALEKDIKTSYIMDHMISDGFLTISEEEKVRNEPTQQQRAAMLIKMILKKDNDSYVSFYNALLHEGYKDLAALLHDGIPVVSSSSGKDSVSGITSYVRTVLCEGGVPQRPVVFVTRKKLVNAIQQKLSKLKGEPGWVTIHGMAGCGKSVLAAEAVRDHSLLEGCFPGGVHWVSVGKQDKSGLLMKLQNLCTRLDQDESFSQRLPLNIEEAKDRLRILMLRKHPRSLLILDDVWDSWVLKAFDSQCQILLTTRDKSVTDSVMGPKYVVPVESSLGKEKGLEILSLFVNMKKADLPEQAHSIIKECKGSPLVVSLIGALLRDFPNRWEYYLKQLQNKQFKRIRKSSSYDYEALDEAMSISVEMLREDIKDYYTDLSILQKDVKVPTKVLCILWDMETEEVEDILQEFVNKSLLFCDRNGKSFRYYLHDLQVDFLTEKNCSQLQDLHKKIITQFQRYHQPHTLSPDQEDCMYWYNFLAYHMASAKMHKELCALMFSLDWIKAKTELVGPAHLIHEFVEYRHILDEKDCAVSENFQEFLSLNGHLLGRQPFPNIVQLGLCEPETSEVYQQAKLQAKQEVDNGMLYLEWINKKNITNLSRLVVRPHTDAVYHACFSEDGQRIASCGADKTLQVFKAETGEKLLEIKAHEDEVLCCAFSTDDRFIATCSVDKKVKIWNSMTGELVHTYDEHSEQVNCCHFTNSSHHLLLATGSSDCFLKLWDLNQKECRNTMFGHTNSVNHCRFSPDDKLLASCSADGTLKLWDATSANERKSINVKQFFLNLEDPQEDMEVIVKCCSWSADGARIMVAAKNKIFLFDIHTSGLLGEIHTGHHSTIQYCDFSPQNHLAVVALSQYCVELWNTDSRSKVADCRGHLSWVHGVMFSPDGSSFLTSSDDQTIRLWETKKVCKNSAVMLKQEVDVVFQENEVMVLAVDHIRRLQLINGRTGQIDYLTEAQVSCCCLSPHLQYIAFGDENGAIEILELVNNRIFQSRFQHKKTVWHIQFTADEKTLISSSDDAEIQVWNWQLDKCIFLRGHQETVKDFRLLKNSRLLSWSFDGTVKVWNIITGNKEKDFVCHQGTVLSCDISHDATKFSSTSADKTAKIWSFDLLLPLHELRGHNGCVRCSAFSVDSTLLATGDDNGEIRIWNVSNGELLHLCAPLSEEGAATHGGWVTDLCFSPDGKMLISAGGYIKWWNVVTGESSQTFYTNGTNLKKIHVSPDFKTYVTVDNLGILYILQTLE

| Molecule | release of cytochrome c-GFP fusion from the mitochondria [1] | caspase activation [2] | binding to Apaf-1 [3] |
| --- | --- | --- | --- |
| CN[C@@H]1C[C@H]2O[C@@](C)([C@@H]1OC)n1c3ccccc3c3c4c(c5c6ccccc6n2c5c31)C(=O)NC4 [staurosporine] | led to release of the fusion from the mitochondria | – | – |
| Horse cytochrome c: horse wild type cytochrome c, highly homologous to human cytochrome c | – | can initiate caspase activation | – |
| K72A: cytochrome c mutant, lysine 72 to alanine, from the literature in vitro studies (Kluck et al.; Yu et al.) | – | no detectable binding or caspase-9 activation | no detectable binding |
| yeast cytochrome c: yeast wild type cytochrome c | – | nor activate caspase | did not measurably bind |
